Experimental data as given in patent US20240368165A1, “SOLID STATE FORMS OF HYDROCHLORIDE SALT OF ((1S,2S,4R)-4-{4-[(1S)-2,3-DIHYDRO-1H-INDEN-1-YLAMINO]-7H-PYRROLO[2,3-D]PYRIMIDIN-7-YL}-2-HYDROXYCYCLOPENTYL)METHYL SULFAMATE” (Takeda Pharmaceutical Company Limited, priority 2020, published 2024).

How the values were obtained:
Type in all cases: physicochemical
[1] = Solid-state stability under accelerated storage, purity via HPLC; settings: for stability with respect to change in TAK-924 chemical purity (% Area) and physical form / overall chemical and physical stability: accelerated storage; for stability with respect to change in TAK-924 chemical purity (% Area) and physical form: compared to Form 1; for overall chemical and physical stability: overall stability data
Protocol: (§1) Solid-state stability studies of Forms 1, 9, and 12 were performed to assess the relative stability of new anhydrous Forms 9 and 12. Solid samples of each pattern were stored in open and closed glass vials at accelerated conditions (40° C./75% RH open and closed, and 60° C. closed). […]

[2] = Solid-state stability under accelerated storage, polymorphic form via XRPD; settings: T-6 Days, hydrochloride
Protocol: as §1

Solubility of solid form = settings: pH 2.33; pH of 2.33
[3] = 40° C./75% RH Closed, T-3.5 Weeks, hydrochloride
[4] = 40° C./75% RH Closed, T-6 Days, hydrochloride
[5] = 40° C./75% RH Open, T-3.5 Weeks, hydrochloride
[6] = 40° C./75% RH Open, T-6 Days, hydrochloride
[7] = 60° C. (closed), T-3.5 Weeks, hydrochloride
[8] = 60° C. (closed), T-6 Days, hydrochloride

| Structure (SMILES) | stability with respect to change in TAK-924 chemical purity (% Area) and physical form [1] | overall chemical and physical stability [1] | HPLC Purity (% Area TAK-924) [1, 3] | HPLC Purity change from T-0 [1, 3] | HPLC Purity (% Area TAK-924) [1, 4] | HPLC Purity change from T-0 [1, 4] | HPLC Purity (% Area TAK-924) [1, 5] | HPLC Purity change from T-0 [1, 5] | HPLC Purity (% Area TAK-924) [1, 6] | HPLC Purity change from T-0 [1, 6] | HPLC Purity (% Area TAK-924) [1, 7] | HPLC Purity change from T-0 [1, 7] | HPLC Purity (% Area TAK-924) [1, 8] | HPLC Purity change from T-0 [1, 8] | HPLC Purity (% Area TAK-924), Initial (T-0) ([1]; Initial (T-0), before accelerated storage, hydrochloride) | XRPD Results (polymorphic form after accelerated storage) ([2]; 40° C./75% RH Closed) | XRPD Results (polymorphic form after accelerated storage) ([2]; 60° C. (closed)) | solubility (Solubility of solid form) |
| --- | --- | --- | --- | --- | --- | --- | --- | --- | --- | --- | --- | --- | --- | --- | --- | --- | --- | --- |
| Cl.NS(=O)(=O)OC[C@@H]1C[C@@H](n2ccc3c(N[C@H]4CCc5ccccc54)ncnc32)C[C@@H]1O [Compound Form 12, ((1S,2S,4R)-4-{4-[(1S)-2,3-dihydro-1H-inden-1-ylamino]-7H-pyrrolo[2,3-d]pyrimidin-7-yl}-2-hydroxycyclopentyl)methyl sulfamate hydrochloride] | stable when compared to Form 1 | chemically and physically stable | – | – | – | – | – | – | – | – | – | – | – | – | – | – | – | – |
| Cl.NS(=O)(=O)OC[C@@H]1C[C@@H](n2ccc3c(N[C@H]4CCc5ccccc54)ncnc32)C[C@@H]1O [Compound Form 1, ((1S,2S,4R)-4-{4-[(1S)-2,3-dihydro-1H-inden-1-ylamino]-7H-pyrrolo[2,3-d]pyrimidin-7-yl}-2-hydroxycyclopentyl)methyl sulfamate hydrochloride] | – | – | 98.1 % Area | (−0.9%) | 98.6 % Area | (−0.4%) | 98.8 % Area | (−0.2%) | 98.9 % Area | (−0.1%) | 86.6 % Area | (−13.4%) | 94.4 % Area | (−5.6%) | 99.0 % Area | Form 1 | Form 1 | – |
| Cl.NS(=O)(=O)OC[C@@H]1C[C@@H](n2ccc3c(N[C@H]4CCc5ccccc54)ncnc32)C[C@@H]1O [Compound Form 9, ((1S,2S,4R)-4-{4-[(1S)-2,3-dihydro-1H-inden-1-ylamino]-7H-pyrrolo[2,3-d]pyrimidin-7-yl}-2-hydroxycyclopentyl)methyl sulfamate hydrochloride] | stable when compared to Form 1 | chemically and physically stable | – | – | – | – | – | – | – | – | – | – | – | – | – | – | – | ~7800 µg/mL |
